What was measured:
[1] = test system: B16 cells; assay: Induction of pigmentation in vitro, DOPA staining; assay type: cell-based, murine; conditions: pH 7.2, 48 hours
Description: THPED was tested for its effect on pigmentation, using melanocytes, DOPA staining and computerized image analysis. THPED was obtained from BASF (Florham Park, N.J.). THPED was dissolved in culture medium and pH was adjusted to neutral (pH 7.2). THPED was assayed at concentrations ranging from 0.05-0.01%.
B16 cells (a murine melanoma cell line) were obtained from American Type Culture Collection (Manassas, Va.). Cells were cultured in Dulbecco's Modified Eagle Medium (DMEM) containing 10% fetal bovine serum (FBS), 4.5 mg/ml glucose, 2 mM L-glutamine, sodium pyruvate, without phenol red (Invitrogen, Carlsbad, Calif.). B16 cells were plated on 12 well tissue culture plates (Corning Costar, San Diego, Calif.), at 40,000 cells per well in the above culture media. Cells were allowed to grow overnight and then treated with various concentrations of THPED at pH 7.2 for total 48 hours. Fresh media containing the experimental treatments were changed once daily.
At the end of the treatment, the cells were washed for 5 minutes, twice, in phosphate-buffered saline (PBS, from Life Technologies, Gaithersburg, Md.), then briefly fixed in 10% buffered formalin (from Sigma St. Louis, Mo.) for 10 minutes, washed three times with PBS and stained with 0.1% L-3,4-Dihydroxyphenylalanine (DOPA, from Sigma, St. Louis, Mo.) in PBS for 2-3 hours at 37° C., followed by three PBS washes. DOPA is a substrate for tyrosinase; therefore an increase in staining represents increased tyrosinase activity and pigment production. Images of DOPA-stained cells were taken using a Leica DMIL microscope (Bannockburn, Ill.) and an OPTRONICS DEI-750 digital camera (Goleta, Calif.). All images were obtained and analyzed with Image Pro Plus 4.0 software (Media Cybernetics, Silver Spring, Md.).
The pigment change was evaluated using the scale defined in Table XII.

[2] = test system: macrophages; conditions: Bhide M V et al., Immunopharmacol. 1985; cited from earlier work
[3] = test system: Human keratinocytes; assay: Visual contraction of keratinocytes by real time microscopy (cell area); assay type: cell-based; conditions: 0.1%
Description: Human keratinocytes and Epilife culture media (Cascade Biologics, Portland, Oreg.) were cultured at 37° C. in a humidified atmospheres of 5% CO2/95% air. Glass Cover Slides (Applied Biophysics, Troy, N.Y.) were coated with 0.01 mg/ml Laminin V (Sigma Aldirch, St Louis, Mo.) in sterile Phosphate Buffered Saline (Gibco Life Sciences, San Diego, Calif.). Human keratinocytes were prepared at a density of 0.125×10^6 cells/mL in Epilife culture media. Human keratinocytes were plated at 3.75×10^4 cells/well on a 6 well plate containing Laminin coated coverslips and cultured at 37° C. in a humidified atmospheres of 5% […] for 48 hrs. Individual coverslips were transferred to a open bath imaging chamber (Warner Instruments, Hamden, Conn.) mounted on a Leica inverted microscope (Leitz DM1L) with an attached CCD camera. Cells were perfused with Hank's Buffered Salt Solution (HBSS; Gibco Life Sciences, San Diego, Calif.) at flow rate of 1 ml/min using a peristaltic pump (Cole Parmer, Vernon Hills, Ill.). […] Cell area was determined using Scion Image software (Version 4.0.2), and reductions in cell area were reported as the ratio of cell area after treatment to cell area prior to treatment

[4] = test system: GM-CSF (granulocyte macrophage stimulating factor); assay: PHA-stimulated peripheral blood lymphocyte cytokine release: GM-CSF; assay type: cell-based; conditions: Homo sapiens, 48 h, read-out: GMCSF % inh.
Text: The ability of various amines to affect the inflammatory responses was illustrated by its ability to reduce the production of cytokines by human lymphocytes stimulated with the T-cell receptor (TCR) activating agent phytohaemagglutinin (PHA) in the following assay.
Human leukocytes were collected from a healthy adult […] via leukopheresis, and adjusted to a density Of 1×10^6 cells/mL in serum free lymphocyte growth medium (ExVivo-15, Biowhittaker, Walkersville, Md.). PBLs were stimulated with 10 μg/mL PHA in the presence or absence of test samples following published methods (Hamamoto Y., et al. Exp Dermatol 2:231-235, 1993). The following compounds were evaluated N,N,N′,N′-Tetrakis(2-hydroxypropyl)ethylenediamine (THPED, available from BASF under the tradename “Quadrol” or “Neutrol”), N,N,N,N-Tetramethylethylenediamine (TEMED, available from Pfaltz & Bauer Chemicals (Waterbury, Conn.)), and Diethylenetriamine (available from Sigma-Aldrich) Following a 48 hour incubation at 37° C. with 5% CO2, the supernatant was removed and evaluated for cytokine content using commercially available multiplex cytokine detection kit.

## CC(O)CN(CCN(CC(C)O)CC(C)O)CC(C)O (stereo not drawn) [THPED, N,N,N′,N′-Tetrakis(2-hydroxypropyl)ethylenediamine]
[1]; 0.01% (w/v)
  Pigmentation score: 1
[1]; 0.025% (w/v)
  Pigmentation score: 2
[1]; 0.05% (w/v)
  Pigmentation score: 4
[2]
  effect on macrophages in culture: increased macrophage activation
[3]; 2 Min
  Visual Contraction of Human Keratinocytes (reduction in cell area, Mean ± Std Dev): 32.9% ±
[3]; 10 Min
  Visual Contraction of Human Keratinocytes (reduction in cell area, Mean ± Std Dev): 37.9% ± 10.7%
[3]; 20 Min
  Visual Contraction of Human Keratinocytes (reduction in cell area, Mean ± Std Dev): 47.3% ± 12.7%
[4]
  inhibition at 10 µg/mL: 10.3%
  inhibition at 100 µg/mL: 15.8%
